Source: patent US20060057696A1, “Sugar chain synthases” (priority 2002, published 2006)

Key:
Assay type in all cases: biochemical
[1] = molecular target: T1, PA-mST8Sia VI (mouse ST8Sia VI) (Mus musculus, UniProt Q8K4T1); assay: Sialyltransferase activity of PA-mST8Sia VI toward acceptor substrates; conditions: for Relative rate (%) Mouse ST8SiaVI: incorporation with Fetuin taken as 100, substrate 0.5 mg/ml glycolipids, 1 mg/ml glycoproteins, monosaccharides and oligosaccharides
T1 construct: amino acids 26-398 in the case of mouse ST8Sia VI; signal peptide of mouse immunoglobulin IgM (N); made in house; host or cells: COS-7 cells, transient expression of pcDSA-mST8Sia VI; protein recovered from medium on IgG-Sepharose
T1 sequence (Q8K4T1 26-398): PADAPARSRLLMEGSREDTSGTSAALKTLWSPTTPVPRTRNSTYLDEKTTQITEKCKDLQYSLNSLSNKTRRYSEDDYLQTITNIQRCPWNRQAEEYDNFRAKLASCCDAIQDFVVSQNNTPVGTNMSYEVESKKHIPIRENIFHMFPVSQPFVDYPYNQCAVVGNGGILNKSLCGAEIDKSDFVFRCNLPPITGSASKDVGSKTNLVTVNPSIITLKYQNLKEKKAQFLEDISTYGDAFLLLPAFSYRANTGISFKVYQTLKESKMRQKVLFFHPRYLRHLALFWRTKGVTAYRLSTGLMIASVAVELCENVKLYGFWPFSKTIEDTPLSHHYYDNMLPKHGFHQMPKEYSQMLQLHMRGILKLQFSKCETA
Description: Using each expression vector and lipofectamine (Invitrogen), transient expression was carried out in COS-7 cells (Kojima, N. et al. (1995) FEBS Lett. 360, 1-4). The proteins of the present invention secreted from the cells into which each expression vector had been introduced were named as PA-mST8Sia VI (mouse) and PA-hST8Sia VI (human). PA-mST8Sia VI and PA-hST8Sia VI were adsorbed to IgG-Sepharose (Amersham Pharmacia Biotech), and were then recovered from medium. Sialyltransferase activity was measured as follows according to the method of Lee et al. (Lee, Y.-C. et al. (1999) J. Biol. Chem. 274, 11958-11967). A reaction solution (10 μl) containing 50 mM MES buffer (pH 6.0), 1 mM MgCl2, 1 mM CaCl2, 0.5% Triton CF-54, 100 μM CMP-[^14C]-NeuAc, a glycoconjugate (which was added at 0.5 mg/ml in the case of glycolipids, and at 1 mg/ml in the case of glycoproteins or oligosaccharides), and a PA-mST8Sia VI or PA-hST8Sia VI suspension, was incubated at 37° C. for 3 to 20 hours. Thereafter, in the case of glycolipids, the reaction product was purified with a C-18 column (Sep-Pak Vac 100 mg; Waters) and the purified product was used as a sample, and in the case of oligosaccharides or glycoproteins, the reaction product was directly used as a sample. Thus, the obtained samples were subjected to analysis. In the case of oligosaccharides or glycolipids, the sample was spotted on a silica gel 60 HPTLC plate (Merck), and was then developed with a developing solvent consisting of ethanol:pyridine:n-butanol:water:acetic acid=100:10:10:30:3 (for oligosaccharides), a developing solvent consisting of 1-propanol:ammonia water:water=6:1:2.5 (for oligosaccharides), or a developing solvent consisting of chloroform:methanol: 0.02% CaCl2=55:45:10 (for glycolipids). In the case of glycoproteins, analysis was carried out by SDS-polyacrylamide gel electrophoresis. The obtained radioactivities were visualized with a BAS2000 radio image analyzer (Fuji Film) and then quantified.

human ST6Gal I = molecular target: T2, human ST6Gal I (Homo sapiens, UniProt P15907); assay: Sialyltransferase activity of human ST6Gal I toward acceptor substrates (comparison); conditions: incorporation with Galβ1,4GlcNAc taken as 100; 0.5 mg/ml glycolipids, 1 mg/ml glycoproteins and oligosaccharides
T2 sequence (P15907 1-406): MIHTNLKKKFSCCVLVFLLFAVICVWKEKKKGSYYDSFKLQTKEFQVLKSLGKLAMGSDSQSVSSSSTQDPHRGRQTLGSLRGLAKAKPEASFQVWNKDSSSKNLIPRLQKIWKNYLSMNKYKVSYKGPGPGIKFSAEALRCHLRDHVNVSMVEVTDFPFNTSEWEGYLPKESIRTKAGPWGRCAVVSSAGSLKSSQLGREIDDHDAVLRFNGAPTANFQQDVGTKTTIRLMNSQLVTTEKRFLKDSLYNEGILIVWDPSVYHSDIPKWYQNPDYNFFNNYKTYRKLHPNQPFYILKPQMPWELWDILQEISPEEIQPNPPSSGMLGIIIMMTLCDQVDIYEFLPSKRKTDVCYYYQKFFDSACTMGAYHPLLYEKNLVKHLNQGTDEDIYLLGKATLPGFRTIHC
Description: (§1) Using each expression vector and lipofectamine (Invitrogen), transient expression was carried out in COS-7 cells (Kojima, N. et al. (1995) FEBS Lett. 360, 1-4). The proteins of the present invention secreted from the cells into which each expression vector had been introduced were named as PA-hST6Gal II (human) and PA-mST6Gal II (mouse). PA-hST6Gal II and PA-mST6Gal II were adsorbed to IgG-Sepharose (Amersham Pharmacia Biotech), and were then recovered from medium. Sialyltransferase activity was measured as follows according to the method of Lee et al. (Lee, Y.-C. et al. (1999) J Biol. Chem. 274, 11958-11967). A reaction mixture (10 μl) containing 50 mM MES buffer (pH 6.0), 1 mM MgCl2, 1 mM CaCl2, 0.5% Triton CF-54, 100 μM CMP-[^14C]-NeuAc, a substrate sugar chain (which was added at 0.5 mg/ml in the case of glycolipids, and at 1 mg/ml in the case of glycoproteins or oligosaccharides), and a PA-hST6Gal II or PA-mST6Gal II suspension, was incubated at 37° C. for 3 to 20 hours. Thereafter, in the case of glycolipids, the reaction product was purified with a C-18 column (Sep-Pak Vac 100 mg; Waters) and the purified product was used as a sample. In the case of oligosaccharides or glycoproteins, the reaction product was directly used as a sample. Thus, the obtained sample was subjected to analysis. In the case of oligosaccharides or glycolipids, the sample was spotted on a silica gel 60 HPTLC plate (Merck), and it was then developed with a developing solvent consisting of 1-propanol:ammonia water:water=6:1:2.5 (for oligosaccharides), or a developing solvent consisting of chloroform:methanol: 0.02% CaCl2=55:45:10 (for glycolipids). In the case of glycoproteins, analysis was carried out by SDS-polyacrylamide gel electrophoresis. The obtained radioactivities were visualized with a BAS2000 radio image analyzer (Fuji Film) and then quantified.
In contrast, there were no glycolipids, which could be substrates of both the enzymes, as far as the inventors have examined. The activity of human ST6Gal I on oligosaccharides was also examined for comparison. […] (FIG. 10).

[2] = molecular target: T3, PA-hST6Gal II (human ST6Gal II) (Homo sapiens, UniProt Q96JF0); assay: Sialyltransferase activity of PA-hST6Gal II toward acceptor substrates; conditions: PA-hST6Gal II; incorporation with Galβ1,4GlcNAc taken as 100; 0.5 mg/ml glycolipids, 1 mg/ml glycoproteins and oligosaccharides
T3 construct: amino acids 33-529 in the case of human ST6Gal II; signal peptide of mouse immunoglobulin IgM (N); made in house; host or cells: COS-7 cells, transient expression of pcDSA-hST6Gal II; protein recovered from medium on IgG-Sepharose
T3 sequence (Q96JF0 33-529): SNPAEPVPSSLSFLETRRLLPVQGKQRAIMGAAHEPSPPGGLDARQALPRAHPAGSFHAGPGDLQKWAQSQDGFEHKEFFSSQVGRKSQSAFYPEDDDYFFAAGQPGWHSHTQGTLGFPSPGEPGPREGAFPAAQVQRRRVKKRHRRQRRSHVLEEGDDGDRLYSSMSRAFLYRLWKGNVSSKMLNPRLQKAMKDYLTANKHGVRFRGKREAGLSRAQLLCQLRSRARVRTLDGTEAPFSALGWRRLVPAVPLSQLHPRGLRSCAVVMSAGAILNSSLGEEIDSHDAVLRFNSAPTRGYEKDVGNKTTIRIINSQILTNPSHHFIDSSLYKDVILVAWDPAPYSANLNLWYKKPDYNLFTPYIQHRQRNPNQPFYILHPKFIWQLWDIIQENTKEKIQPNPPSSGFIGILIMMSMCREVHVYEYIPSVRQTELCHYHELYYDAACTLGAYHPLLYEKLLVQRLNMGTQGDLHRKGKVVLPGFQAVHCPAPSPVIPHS
Description: as §1

[3] = molecular target: T4, PA-mST6Gal II (mouse ST6Gal II) (Mus musculus, UniProt Q76K27, R48S); assay: Sialyltransferase activity of PA-mST6Gal II toward acceptor substrates; conditions: PA-mST6Gal II; incorporation with Galβ1,4GlcNAc taken as 100; 0.5 mg/ml glycolipids, 1 mg/ml glycoproteins and oligosaccharides
T4 construct: amino acids 31-524 in the case of mouse ST6Gal II; signal peptide of mouse immunoglobulin IgM (N); made in house; host or cells: COS-7 cells, transient expression of pcDSA-mST6Gal II; protein recovered from medium on IgG-Sepharose
T4 sequence (Q76K27 31-524 R48S): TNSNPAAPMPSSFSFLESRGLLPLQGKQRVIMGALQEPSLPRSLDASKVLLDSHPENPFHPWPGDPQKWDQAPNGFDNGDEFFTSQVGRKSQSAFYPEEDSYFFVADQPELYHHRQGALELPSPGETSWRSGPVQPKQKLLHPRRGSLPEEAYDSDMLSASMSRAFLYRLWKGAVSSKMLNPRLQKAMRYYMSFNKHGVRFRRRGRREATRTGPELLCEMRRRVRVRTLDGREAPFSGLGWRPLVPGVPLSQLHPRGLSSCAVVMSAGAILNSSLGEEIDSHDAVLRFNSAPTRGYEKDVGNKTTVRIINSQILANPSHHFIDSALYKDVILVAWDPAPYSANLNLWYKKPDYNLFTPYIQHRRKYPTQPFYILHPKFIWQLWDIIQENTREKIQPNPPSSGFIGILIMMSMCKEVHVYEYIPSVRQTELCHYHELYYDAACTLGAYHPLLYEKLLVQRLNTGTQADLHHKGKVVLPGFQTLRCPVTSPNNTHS
Description: as §1

Molecule | activity of PA-mST8Sia VI on the substrate (in words) [1] | Relative rate (%) Mouse ST8SiaVI [1] | further results
NeuAcα2,3Galβ1-Cer [GM4] | showed activity | 1.0% | –
Galβ1,3GalNAcβ1,4Galβ1,4Glcβ1-Cer [GA1] | – | – | Relative rate (%) Human ST6Gal I (human ST6Gal I): 0%; Relative rate (%) Human ST6Gal II [2]: 0%; Relative rate (%) Mouse ST6Gal II [3]: 0%
Galβ1,3GlcNAc [Type I] | – | – | Relative rate (%) Human ST6Gal I (human ST6Gal I): 4.2%; Relative rate (%) Human ST6Gal II [2]: 0%; Relative rate (%) Mouse ST6Gal II [3]: 0%
CC(=O)N[C@@H]1[C@@H](O)[C@H](O[C@@H]2O[C@H](CO[C@]3(C(=O)O)C[C@H](O)[C@@H](NC(C)=O)[C@H]([C@H](O)[C@H](O)CO)O3)[C@H](O)[C@H](O)[C@H]2O)[C@@H](CO)O[C@H]1O [6′-Sialyl-N-acetyllactosamine, NeuAcα2,6Galβ1,4GlcNAc] | – | 88.7% | –
Galβ1,4GlcNAcβ1,3Galβ1,4Glcβ1-Cer [Paragloboside] | – | – | Relative rate (%) Human ST6Gal I (human ST6Gal I): 0.3%; Relative rate (%) Human ST6Gal II [2]: 0%; Relative rate (%) Mouse ST6Gal II [3]: 0%
NeuAcα2,3Galβ1,3GalNAcβ1,4Galβ1,4Glcβ1-Cer [GM1b] | showed activity | 1.0% | –
NeuAcα2,3Galβ1,4GlcNAcβ1,3Galβ1,4Glcβ1-Cer [2,3-SPG] | showed activity | 3.5% | –
CC(=O)NC1C(O)OC(CO)C(OC2OC(CO)C(O)C(OC3(C(=O)O)CC(O)C(NC(C)=O)C(C(O)C(O)CO)O3)C2O)C1O (stereo not drawn) [3′-Sialyl-N-acetyllactosamine, NeuAcα2,3Galβ1,4GlcNAc] | – | 411% | –
CC(=O)N[C@H]1C(O)O[C@H](CO)[C@H](O)[C@@H]1O (stereo partly drawn) [N-Acetylgalactosamine] | – | 0% | –
O=C[C@H](O)[C@@H](O)[C@@H](O)[C@H](O)CO [Galactose] | – | 0% | –
CC(=O)N[C@H]1[C@H]([C@H](O)[C@H](O)CO)OC(O)(C(=O)O)C[C@@H]1O (stereo partly drawn) [N-Acetylneuraminic acid] | – | 0% | –
NeuAcα2,6Galβ1,4GlcNAcβ1,3Galβ1,4Glcβ1-Cer [2,6-SPG] | showed activity | 0.98% | –
CC(=O)N[C@H]1[C@H]([C@H](O)[C@H](O)CO)O[C@@](OC[C@H]2OC(O)[C@H](O)[C@@H](O)[C@H]2O)(C(=O)O)C[C@@H]1O (stereo partly drawn) [6′-Sialylgalactose, NeuAcα2,6Gal] | – | 2.0% | –
NeuAcα2,6Galβ1,3GalNAcβ1,4Galβ1,4Glcβ1-Cer [GSC-68] | showed activity | 2.6% | –
Galβ1,3GalNAcβ1,4(NeuAcα2,8NeuAcα2,3)Galβ1,4Glcβ1-Cer [GD1b] | – | 0% | –
CC(=O)N[C@H]1[C@H]([C@H](O)[C@H](O)CO)O[C@@](O[C@H]2[C@@H](O)[C@@H](CO)OC(O)[C@@H]2O)(C(=O)O)C[C@@H]1O (stereo partly drawn) [3′-Sialylgalactose, NeuAcα2,3Gal] | – | 13.9% | –
